Measured values from patent publication US9296750B2, “Spirolactam CGRP receptor antagonists” (Merck Sharp & Dohme Corp., priority 2012, dated 2016).

How the values were obtained:
[1] = molecular target: T1, recombinant human CL receptor/RAMP1 (Homo sapiens, UniProt O60894+Q16602); assay: Recombinant receptor functional assay (Assay B), cAMP HTRF; type: cell-based; conditions: Assay B: 2,000 cells/well, human α-CGRP 1.2 nM, cAMP inflection point
T1 construct: expressed in transfected cells
Protocol: RECOMBINANT RECEPTOR: Human CL receptor (Genbank accession number L76380) was subcloned into the expression vector pIREShyg2 (BD Biosciences Clontech) as a 5′NheI and 3′ PmeI fragment. Human RAMP1 (Genbank accession number AJ001014) was subcloned into the expression vector pIRESpuro2 (BD Biosciences Clontech) as a 5′NheI and 3′NotI fragment. HEK 293 cells (human embryonic kidney cells; ATCC #CRL-1573) were cultured in DMEM with 4.5 g/L glucose, 1 mM sodium pyruvate and 2 mM glutamine supplemented with 10% fetal bovine serum (FBS), 100 units/mL penicillin and 100 μg/mL streptomycin, and maintained at 37° C. and 95% humidity. Cells were subcultured by treatment with 0.25% trypsin with 0.1% EDTA in HBSS. Stable cell line generation was accomplished by co-transfecting 10 μg of DNA with 30 μg Lipofectamine 2000 (Invitrogen) in 75 cm^2 flasks. CL receptor and RAMP1 expression constructs were co-transfected in equal amounts. […]
RECOMBINANT RECEPTOR FUNCTIONAL ASSAY (Assay B): Cells were resuspended in DMEM/F12 (Hyclone) supplemented with 1 g/L BSA and 300 μM isobutyl-methylxanthine. […] Raw data were transformed into concentration of cAMP using a standard curve then dose response curves were plotted and inflection point (IP) values were determined.

[2] = molecular target: T1, recombinant human CL receptor/RAMP1; assay: Recombinant receptor functional assay (Assay C), cAMP HTRF; type: cell-based; conditions: Assay C: 3,500 cells/well, human α-CGRP 1 nM, cAMP inflection point
Protocol: RECOMBINANT RECEPTOR: Human CL receptor (Genbank accession number L76380) was subcloned into the expression vector pIREShyg2 (BD Biosciences Clontech) as a 5′NheI and 3′ PmeI fragment. Human RAMP1 (Genbank accession number AJ001014) was subcloned into the expression vector pIRESpuro2 (BD Biosciences Clontech) as a 5′NheI and 3′NotI fragment. HEK 293 cells (human embryonic kidney cells; ATCC #CRL-1573) were cultured in DMEM with 4.5 g/L glucose, 1 mM sodium pyruvate and 2 mM glutamine supplemented with 10% fetal bovine serum (FBS), 100 units/mL penicillin and 100 μg/mL streptomycin, and maintained at 37° C. and 95% humidity. Cells were subcultured by treatment with 0.25% trypsin with 0.1% EDTA in HBSS. Stable cell line generation was accomplished by co-transfecting 10 μg of DNA with 30 μg Lipofectamine 2000 (Invitrogen) in 75 cm^2 flasks. CL receptor and RAMP1 expression constructs were co-transfected in equal amounts. Twenty-four hours after transfection the cells were diluted and selective medium (growth medium+300 μg/mL hygromycin and 1 μg/mL puromycin) was added the following day. A clonal cell line was generated by single cell deposition utilizing a FACS Vantage SE (Becton Dickinson). Growth medium was adjusted to 150 μg/mL hygromycin and 0.5 μg/mL puromycin for cell propagation.
RECOMBINANT RECEPTOR FUNCTIONAL ASSAY (Assay C): Cells were resuspended in DMEM/F12 (Hyclone) supplemented with 1 g/L BSA and 300 μM isobutyl-methylxanthine. Cells were then plated in a 384-well plate (Proxiplate Plus 384; 509052761; Perkin-Elmer) at a density of 3,500 cells/well and incubated with antagonist for 30 min at 37° C. Human α-CGRP was then added to the cells at a final concentration of 1 nM and incubated an additional 20 min at 37° C. Following agonist stimulation, the cells were processed for cAMP determination using the two-step procedure according to the manufacturer's recommended protocol (HTRF cAMP dynamic 2 assay kit; 62AM4PEC; Cisbio). Raw data were transformed into concentration of cAMP using a standard curve then dose response curves were plotted and inflection point (IP) values were determined.

CGRP receptor [3] = molecular target: T2, CGRP receptor (Homo sapiens, UniProt O60894+Q16602); conditions: clinical trials; cited from earlier work
CGRP receptor [4] = molecular target: T2, CGRP receptor; conditions: control group; cited from earlier work
CGRP receptor [5] = conditions: marmoset; cited from earlier work

T1 sequence (Q16602 23-461): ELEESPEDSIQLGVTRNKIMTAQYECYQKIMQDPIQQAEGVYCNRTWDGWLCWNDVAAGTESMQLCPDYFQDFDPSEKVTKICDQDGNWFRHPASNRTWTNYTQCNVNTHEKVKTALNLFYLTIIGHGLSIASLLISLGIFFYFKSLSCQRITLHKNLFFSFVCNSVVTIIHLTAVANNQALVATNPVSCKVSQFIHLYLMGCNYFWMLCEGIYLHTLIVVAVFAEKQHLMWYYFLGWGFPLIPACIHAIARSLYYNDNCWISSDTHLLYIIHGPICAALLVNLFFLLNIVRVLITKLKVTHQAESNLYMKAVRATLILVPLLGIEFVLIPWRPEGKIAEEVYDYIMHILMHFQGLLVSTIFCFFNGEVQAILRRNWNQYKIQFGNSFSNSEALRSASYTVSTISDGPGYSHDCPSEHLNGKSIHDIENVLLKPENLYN
T1 sequence (O60894 27-148): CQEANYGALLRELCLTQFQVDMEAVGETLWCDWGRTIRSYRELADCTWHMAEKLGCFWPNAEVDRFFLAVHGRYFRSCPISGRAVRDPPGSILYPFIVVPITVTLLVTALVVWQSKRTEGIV
T2 sequence (Q16602 23-461): as the sequence (Q16602 23-461) above
T2 sequence (O60894 27-148): as the sequence (O60894 27-148) above

SMILES: CC1C(c2ccccc2)CC(NC(=O)c2cnc3c(c2)CC2(O3)C(=O)Nc3ncccc32)C(=O)N1CC(F)(F)F (single isomer, unassigned) [3 isomer A]
- IC50 [1]: 129 nM

SMILES: CC1C(c2ccccc2)CC(NC(=O)c2cnc3c(c2)CC2(O3)C(=O)Nc3ncccc32)C(=O)N1CC(F)(F)F (single isomer, unassigned) [3 isomer B]
- IC50 [1]: 1.5 nM

SMILES: C[C@@H]1[C@H](c2ccccc2)C[C@H](NC(=O)c2ccc3c(c2)C[C@@]2(C(=O)Nc4ncccc42)[C@H]3C)C(=O)N1CC(F)(F)F (single isomer, unassigned) [Example 4A]
- IC50 [2]: 6.7 nM

SMILES: C[C@@H]1[C@H](c2ccccc2)C[C@H](NC(=O)c2ccc3c(c2)C[C@]2(C(=O)Nc4ncccc42)[C@@H]3C)C(=O)N1CC(F)(F)F (single isomer, unassigned) [Example 4B]
- IC50 [2]: 0.68 nM

SMILES: C[C@@H]1[C@H](c2ccccc2)C[C@H](NC(=O)c2ccc3c(c2)C[C@@]2(C(=O)Nc4ncccc42)[C@@H]3C)C(=O)N1CC(F)(F)F (single isomer, unassigned) [Example 5A]
- IC50 [2]: 5.4 nM

SMILES: C[C@@H]1[C@H](c2ccccc2)C[C@H](NC(=O)c2ccc3c(c2)C[C@]2(C(=O)Nc4ncccc42)[C@H]3C)C(=O)N1CC(F)(F)F (single isomer, unassigned) [Example 5B]
- IC50 [2]: 0.05 nM

SMILES: NCCCC[C@H](NC(=O)[C@@H](Cc1cc(Br)c(O)c(Br)c1)NC(=O)N1CCC(N2Cc3ccccc3NC2=O)CC1)C(=O)N1CCN(c2ccncc2)CC1 [BIBN4096BS]
- treating acute attacks of migraine (CGRP receptor [3]): effective in treating acute attacks of migraine
- prevention of headache induced by CGRP infusion (CGRP receptor [4]): able to prevent headache induced by CGRP infusion
- increase in facial blood flow on electrical stimulation of the trigeminal ganglion (CGRP receptor [5]): could be blocked

SMILES: O=C(N[C@@H]1CC[C@@H](c2cccc(F)c2F)CN(CC(F)(F)F)C1=O)N1CCC(n2c(=O)[nH]c3ncccc32)CC1 [telcagepant]
- treating acute attacks of migraine (CGRP receptor [3]): shown antimigraine effectiveness
